The record followed here is publication PMC11054274, “Dual Antitubercular and Antileishmanial Profiles of Quinoxaline Di-N-Oxides Containing an Amino Acidic Side Chain” (Pharmaceuticals, 2024).

Like-named read-outs stand apart in the source and are kept apart here.

For data set [1], the system named is Mycobacterium tuberculosis H37Rv. Put plainly: In vitro activity against Mycobacterium tuberculosis H37Rv, microdilution AlamarBlue broth assay (BacTiter-Glo alternative read-out). It counts as cell-based. The settings on record: Table S1, Mtb H37Rv; for IC50: read-out: IC50, antibacterial activity against Mtb H37Rv; for IC90: read-out: IC90, antibacterial activity against Mtb H37Rv. (In general: In broth dilution the organism is exposed to a series of concentrations in liquid medium.)

Data set [2] deals with Leishmania amazonensis promastigotes. Put plainly: Promastigote susceptibility assay (resazurin), L. amazonensis. It counts as cell-based. The settings on record: for L. amazonensis promastigote selectivity index (SI): SI = CC50 (J774 macrophages)/IC50. How it is done: (§1) The following species of Leishmania were used: L. donovani (MHOM/IN/80/DD8), which was purchased (ATCC, Manassas, VA, USA), and L. amazonensis (MHOM/Br/79/Maria), which was kindly provided by Prof. Alfredo Toraño (Instituto de Salud Carlos III, Madrid, Spain). Promastigotes were cultured in Schneider’s Insect Medium supplemented with 10% heat-inactivated Fetal Bovine Serum (FBS) (SIGMA-Merck, Madrid, Spain) and 1000 U/L of penicillin plus 100 mg/L of streptomycin in 25 mL culture flasks at 26 °C.
(§2) The activity of the compounds on Leishmania promastigotes was performed according to the method previously reported by us. Briefly, promastigotes (2.5 × 10^5 parasites/well) were cultured in 96-well plastic plates. The compounds were dissolved in dimethylsulfoxide (DMSO). Serial dilutions at 1:2 of the test compounds in fresh culture medium were performed (100, 50, 25, 12.5, 6.25, 3.12, 1.56 and 0.78 µg/mL) in a final volume of 200 µL; the solutions were then added to the parasite suspension. After an incubation period of 48 h at 26 °C, a volume of 20 μL of 2.5 mM resazurin solution in PBS was added and the plates were incubated for 3 h under the same conditions. Finally, the Relative Fluorescence Unit (RFU) (535ex–590em nm wavelength) was determined in a fluorimeter (Infinite 200 Tecan i-Control). Growth inhibition (%) was calculated by 100—[(RFU treated wells—RFU signal-to-noise)/(RFU untreated—RFU signal-to-noise) × 100]. All tests were carried out in triplicate and the IC50 was calculated by probit analysis using SPSS 17.0 Statistics Software. Miltefosine (Sigma-Merck, Madrid, Spain) was used as the reference drug.
A general note: Alamar Blue is a resazurin reagent that responds to reducing activity.

Data set [3] relates to Leishmania donovani promastigotes. Put plainly: Promastigote susceptibility assay (resazurin), L. donovani. The settings on record: for IC50: Table S2, promastigotes, 48 h; for L. donovani promastigote selectivity index (SI): SI = CC50 (J774 macrophages)/IC50. It counts as cell-based. As to the method:
as §1, §2

The subject of data set [4] is Leishmania amazonensis amastigotes. Put plainly: Intracellular amastigote assay in J774 macrophages, L. amazonensis. The settings on record: for L. amazonensis amastigote selectivity index (SI): SI = CC50 (J774 macrophages)/IC50. Format: cell-based. How it is done:
(§3) We performed an intracellular amastigote assay on L. amazonensis and L. donovani according to a fluorometric method reported by us. To carry out the in vitro macrophage infections, 5 × 10^4 cells were cultured in RPMI-1640 medium and then were infected with 5 × 10^5 promastigotes. In the L. donovani assays, the plates were incubated for 48 h at 37 °C, while in the L. amazonensis assays, they were incubated at 33 °C for the first 24 h and then the temperature was increased to 37 °C for the next 24 h. After, the culture medium was removed and the cells were washed with buffered RPMI-HEPES at pH 7.4 several times in order to eliminate the non-internalized promastigotes. A total of 100 µL of fresh medium tempered at 37 °C was added to the infected cells, which then were exposed to 100 µL of the test compounds in RPMI-1640 at different concentrations (100, 50, 25, 12.5, 6.25, 3.12, 1.56 and 0.78 µg/mL in a final volume of 200 µL) for 48 h at 37 °C. The culture medium was removed by centrifugation at 3500 rpm for 5 min (Centrifuge 5403 Eppendorf) and a lysis solution (0.02% sodium dodecyl sulfate in RPMI-HEPES) was added. After 20 min, the treated cells were harvested (centrifugation at 3500 rpm for 5 min at 4 °C) and the supernatants were replaced by 200 μL of fresh Schneider’s culture medium. The plates were then incubated at 26 °C for another 3 days to allow for the transformation of viable amastigotes into promastigotes and proliferation. Afterwards, 20 μL/well of 2.5 mM resazurin was added and incubated for another 3 h. Finally, URF was measured and IC50 was estimated as described above. All tests were carried out in triplicate. Miltefosine was used as the reference drug.

The nature of data set [5]: Cytotoxicity assay on macrophages (resazurin). Format: cell-based, murine. To be noted: mouse, J774 macrophages, 24 h exposure, read-out: Toxicity against J774 macrophages CC50. As to the method: (§4) J774 murine macrophages were grown in RPMI-1640 medium (Sigma) supplemented with 10% heat-inactivated FBS (30 min at 56 °C) (SIGMA-Merck), penicillin G (100 U/mL) and streptomycin (100 µg/mL). For the experiments, cells in the pre-confluence phase were harvested with trypsin. Cell cultures were maintained at 37 °C in a humidified environment with 5% CO2.
(§5) Cell viability was evaluated using a modification with resazurin of the colorimetric method described previously. J774 macrophages were seeded (5 × 10^4 cells/well) in 96-well flat-bottom microplates with 100 µL of RPMI-1640 medium. The cells were allowed to adhere for 4 h at 37 °C in 5% CO2, then different concentrations of the test compounds in 100 µL of the medium were added and exposed for 24 h. Growth controls were also included. To evaluate cell viability, 20 µL of a 2.5 mM resazurin solution was added and the plates were returned to the incubator for another 3 h. The reduction in resazurin was determined by measuring the fluorescence intensity (excitation wavelength, 535 nm; emission wavelength, 590 nm). Each concentration was assayed three times. The medium and controls were used in each test as blanks. The cytotoxic effect of the compounds was defined as the 50% reduction in cell viability of treated culture cells with respect to the untreated culture (CC50).

For data set [6], the system named is Leishmania donovani amastigotes. Put plainly: Intracellular amastigote assay in J774 macrophages, L. donovani. It counts as cell-based. To be noted: for IC50: Table S3, intracellular amastigotes, 48 h. How it is done:
as §3

Another data set relates to J774 murine macrophages. Put plainly: Cytotoxicity assay on macrophages (resazurin). To be noted: 24 h exposure, read-out: Toxicity against J774 macrophages CC50. It counts as cell-based. How it is done: as §4, §5
Where [7] appears, read: Leishmania amazonensis, Table S2, promastigotes, 48 h, read-out: L. amazonensis IC50 (promastigote).
[8] abbreviates: Leishmania amazonensis, J774, Table S3, intracellular amastigotes, 48 h, read-out: L. amazonensis IC50 (amastigote).
Where [9] appears, read: Table S2, promastigotes, 48 h, read-out: L. amazonensis IC50 (promastigote).
Where [10] appears, read: Table S3, intracellular amastigotes, 48 h, read-out: L. amazonensis IC50 (amastigote).
Where [11] appears, read: read-out: IC50 against L. amazonensis amastigotes.

As for `COc1ccc2c(c1)[n+]([O-])c(-c1ccc(C)cc1)c(C(=O)O)[n+]2[O-]` [Compound 6, 2-Carboxy-6-methoxy-3-(4-tolyl)quinoxaline 1,4-dioxide], the IC50 in data set [1] (Mycobacterium tuberculosis) came out at 45 µM; in data set [2] (setting [7]), 20.5 ± 2.5 µM; in data set [3] (Leishmania donovani) it was 6.2 ± 0.2 µM; in data set [4] (setting [8]), 31.9 ± 13.2 µM. For the same molecule, the IC90 in data set [1] (Mycobacterium tuberculosis) came out at 76.4 µM. Moreover, in data set [2], the “L. amazonensis promastigote selectivity index (SI)” value is recorded as 20.7. For the same molecule, the “L. donovani promastigote selectivity index (SI)” value in data set [3] was 68.4. Also, the “L. amazonensis amastigote selectivity index (SI)” value in data set [4] came to 13.3. Also, the 50% cytotoxic concentration (CC50) at 24 h in data set [5] (Table S2) worked out at 424 µM.
Turning to `CCCCCCCCCCCCCCCCOP(=O)([O-])OCC[N+](C)(C)C` [Miltefosine, reference compound], the half-maximal inhibitory concentration (IC50) in data set [2] (Leishmania amazonensis, read-out: IC50 against L. amazonensis (promastigote)) worked out at 47.9 µM; in data set [3] (Leishmania donovani), 0.2 ± 0.02 µM; in data set [4] (setting [8]) it was 47.6 ± 7.4 µM; in data set [4] (Leishmania amazonensis, J774, read-out: IC50 against L. amazonensis amastigotes), 136 µM; in data set [6] (Leishmania donovani, J774), 7.1 µM. Also, in data set [2], the “L. amazonensis promastigote selectivity index (SI)” value worked out at 2.8. The “L. donovani promastigote selectivity index (SI)” value in data set [3] is listed as 680.5. Moreover, the “L. amazonensis amastigote selectivity index (SI)” value worked out at 2.9 in data set [4] and 2.87 in data set [4] (listed as miltefosine). Besides, the “L. donovani amastigote selectivity index (SI)” value in data set [6] (SI = CC50 (J774 macrophages)/IC50) is 19.1. For the same molecule, the CC50 at 24 h in data set [5] (Table S2) came out at 136 ± 10.3 µM; in data set [5] (Table S3) it was 136 µM.
As to `COC(=O)CNC(=O)c1c(-c2cccc(Cl)c2)[n+]([O-])c2cc(OC)ccc2[n+]1[O-]` [Compound 4g, N-(6-Methoxy-1,4-dioxide-3-(3-chlorophenyl)quinoxaline-2-carbonyl)glycine methyl ester], the IC50 in data set [1] worked out at 50 µM; in data set [2] (setting [9]), 112 ± 13.7 µM; in data set [3], 40 ± 6.7 µM; in data set [4] (setting [10]), 23.2 ± 4.1 µM; in data set [6], 77.5 ± 6.2 µM. The IC90 in data set [1] stood at 71.9 µM.
As for “N-(6-Methoxy-1,4-dioxide-3-(4-trifloromethylphenyl)quinoxaline-2-carbonyl)glycine methyl ester [Compound 4h]”, the IC50 in data set [1] came out at 8.46 µM; in data set [2] (setting [9]), 122 ± 9.9 µM; in data set [3], 25.3 ± 1.55 µM; in data set [4] (setting [10]), 20.9 ± 4 µM; in data set [6], 39.5 ± 7.5 µM. Further, the IC90 in data set [1] was 12.4 µM. For the same molecule, the CC50 in the data set on J774 murine macrophages (Table S2) and in the data set on J774 murine macrophages (Table S3) was 554 µM in each case.
As for `COC(=O)CNC(=O)c1c(-c2ccc(F)cc2)[n+]([O-])c2cc(C)ccc2[n+]1[O-]` [Compound 4m, N-(6-Methyl-1,4-dioxide-3-(4-fluorophenyl)-quinoxaline-2-carbonyl)glycine methyl ester], the IC50 in data set [1] was 18.3 µM; in data set [2] (setting [9]), 62.8 ± 1.6 µM; in data set [3] it was 84.8 ± 8.9 µM; in data set [4] (setting [11]), 74.4 µM; in data set [6], 285 ± 115 µM. Moreover, the IC90 in data set [1] is 36.5 µM. Also, the CC50 in the data set on J774 murine macrophages (Table S2) and with J774 murine macrophages (Table S3) was 454 µM in each case.
`COC(=O)CNC(=O)c1c(-c2ccccc2C)[n+]([O-])c2cc(OC)ccc2[n+]1[O-]` [Compound 4k, N-(6-Methoxy-1,4-dioxide-3-(2-methylphenyl)quinoxaline-2-carbonyl)glycine methyl ester]: the half-inhibitory concentration (IC50) in data set [1] worked out at 25.9 µM; in data set [2] (setting [9]) it was 117 ± 14.3 µM; in data set [3], 23.9 ± 2.2 µM; in data set [4] (setting [11]), 7.2 µM; in data set [6], 72.2 ± 18.6 µM. In addition, the IC90 in data set [1] was 44.6 µM. In addition, in the data set on J774 murine macrophages (Table S2), the half-maximal cytotoxic concentration (CC50) was 330 ± 75.5 µM.
Turning to “N-(1,4-Dioxide-3-((4-fluorophenyl)quinoxaline-2-carbonyl)glycine methyl ester [Compound 4d]”, the half-inhibitory concentration (IC50) in data set [1] is 28.6 µM; in data set [2] (setting [9]), 125 ± 1.43 µM; in data set [3], 165 ± 10.2 µM; in data set [4] (setting [11]), 9.8 µM; in data set [6], 234 ± 5.9 µM. The IC90 in data set [1] came out at 47.7 µM. Besides, the half-maximal cytotoxic concentration (CC50) in the data set on J774 murine macrophages (Table S2) and in the data set on J774 murine macrophages (Table S3) was 539 µM each time.
As to `COc1ccc2c(c1)[n+]([O-])c(-c1ccc(C(F)(F)F)cc1)c(C(=O)NCC(=O)O)[n+]2[O-]` [Compound 5h, 2-((Carboxymethyl)carbamoyl)-6-methoxy-3-(4-(trifluoromethyl)phenyl)quinoxaline 1,4-dioxide], the concentration for half-maximal inhibition (IC50) in data set [1] (Mycobacterium tuberculosis) is 16.4 µM; in data set [2] (setting [7]), above 229 µM; in data set [3] (Leishmania donovani), above 229 µM. For the same molecule, in data set [1] (Mycobacterium tuberculosis), the IC90 is 22 µM. In addition, the “L. amazonensis promastigote selectivity index (SI)” value in data set [2] is listed as above 8. Also, the cytotoxic concentration (CC50) at 24 h in data set [5] (Table S2) turned out to be 1830 µM.
With “N-(6-Methoxy-1,4-dioxide-3-(4-florophenyl)quinoxaline-2-carbonyl)glycine methyl ester [Compound 4i]”, the 50% inhibitory concentration (IC50) in data set [1] was 47.2 µM; in data set [2] (setting [9]) it was 117 ± 8 µM; in data set [3], 46.9 ± 14.2 µM; in data set [4] (setting [10]), 12.9 ± 1.7 µM; in data set [6], 71 ± 11 µM. The IC90 in data set [1] worked out at 66.5 µM. Moreover, in the data set on J774 murine macrophages (Table S2), the 50% cytotoxic concentration (CC50) was 379 ± 49.9 µM.

As usually defined, the IC50 is the concentration that inhibits the measured activity by half. For orientation: IC90 means the concentration at which the effect reaches the 90% level. In general, CC50 refers to the concentration giving 50% cytotoxicity.
